Reference: PubChem BioAssay (NCI)
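96-well plates; 48 h exposure; 5 concentrations. Endpoints by linear interpolation between flanking doses. Not reached: highest tested concentration assigned. At the TGI there is no net growth.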

Legend:
Test in all cases: NCI-60 cell line screen, 48 h
SR leukemia = tested on: SR leukemia
786-0 renal = tested on: 786-0 renal
UO-31 renal = tested on: UO-31 renal
SK-MEL-5 melanoma = tested on: SK-MEL-5 melanoma
K-562 leukemia = tested on: K-562 leukemia
DU-145 prostate = tested on: DU-145 prostate
RPMI-8226 leukemia = tested on: RPMI-8226 leukemia
U251 CNS = tested on: U251 CNS
NCI-H460 lung = tested on: NCI-H460 lung
MOLT-4 leukemia = tested on: MOLT-4 leukemia
A549 NSCLC = tested on: A549 NSCLC
MDA-MB-435 = tested on: MDA-MB-435
SF-295 CNS = tested on: SF-295 CNS
SW-620 colon = tested on: SW-620 colon
HCC-2998 colon = tested on: HCC-2998 colon
SNB-19 CNS = tested on: SNB-19 CNS
SK-MEL-28 melanoma = tested on: SK-MEL-28 melanoma
PC-3 prostate = tested on: PC-3 prostate
OVCAR-4 ovarian = tested on: OVCAR-4 ovarian
NCI-H23 lung = tested on: NCI-H23 lung
IGROV1 ovarian = tested on: IGROV1 ovarian
COLO 205 colon = tested on: COLO 205 colon
RXF 393 renal = tested on: RXF 393 renal
HCT-15 colon = tested on: HCT-15 colon
A498 renal = tested on: A498 renal
SN12C renal = tested on: SN12C renal
UACC-62 melanoma = tested on: UACC-62 melanoma
M14 melanoma = tested on: M14 melanoma
KM12 colon = tested on: KM12 colon
ACHN renal = tested on: ACHN renal
EKVX NSCLC = tested on: EKVX NSCLC
HS 578T breast = tested on: HS 578T breast
SF-268 CNS = tested on: SF-268 CNS
CAKI-1 renal = tested on: CAKI-1 renal
UACC-257 melanoma = tested on: UACC-257 melanoma
MDA-N = tested on: MDA-N
CCRF-CEM leukemia = tested on: CCRF-CEM leukemia
HCT-116 colon = tested on: HCT-116 colon
LOX IMVI melanoma = tested on: LOX IMVI melanoma
SNB-75 CNS = tested on: SNB-75 CNS
HOP-62 NSCLC = tested on: HOP-62 NSCLC
BT-549 breast = tested on: BT-549 breast
SF-539 CNS = tested on: SF-539 CNS
OVCAR-3 ovarian = tested on: OVCAR-3 ovarian
SK-OV-3 ovarian = tested on: SK-OV-3 ovarian
TK-10 renal = tested on: TK-10 renal
OVCAR-8 ovarian = tested on: OVCAR-8 ovarian
HL-60(TB) leukemia = tested on: HL-60(TB) leukemia
NCI/ADR-RES ovarian = tested on: NCI/ADR-RES ovarian
MDA-MB-231 breast = tested on: MDA-MB-231 breast
MALME-3M melanoma = tested on: MALME-3M melanoma
T-47D breast = tested on: T-47D breast
SK-MEL-2 melanoma = tested on: SK-MEL-2 melanoma
MCF7 breast = tested on: MCF7 breast
OVCAR-5 ovarian = tested on: OVCAR-5 ovarian
HT29 colon = tested on: HT29 colon
NCI-H522 lung = tested on: NCI-H522 lung
NCI-H226 lung = tested on: NCI-H226 lung
HOP-92 NSCLC = tested on: HOP-92 NSCLC

Compound: O=c1c(Nc2ccccc2)cn(CCOc2ccc(Cl)cc2)c(=O)n1CCOc1ccc(Cl)cc1
- TGI (SR leukemia): > 100 µM
- TGI (786-0 renal): > 100 µM
- TGI (UO-31 renal): > 100 µM
- TGI (SK-MEL-5 melanoma): > 100 µM
- TGI (K-562 leukemia): > 100 µM
- TGI (DU-145 prostate): > 100 µM
- TGI (RPMI-8226 leukemia): > 100 µM
- TGI (U251 CNS): > 100 µM
- TGI (NCI-H460 lung): > 100 µM
- TGI (MOLT-4 leukemia): > 100 µM
- TGI (A549 NSCLC): > 100 µM
- TGI (MDA-MB-435): > 100 µM
- TGI (SF-295 CNS): > 100 µM
- TGI (SW-620 colon): > 100 µM
- TGI (HCC-2998 colon): > 100 µM
- TGI (SNB-19 CNS): > 100 µM
- TGI (SK-MEL-28 melanoma): > 100 µM
- TGI (PC-3 prostate): > 100 µM
- TGI (OVCAR-4 ovarian): > 100 µM
- TGI (NCI-H23 lung): > 100 µM
- TGI (IGROV1 ovarian): > 100 µM
- TGI (COLO 205 colon): > 100 µM
- TGI (RXF 393 renal): > 100 µM
- TGI (HCT-15 colon): > 100 µM
- TGI (A498 renal): > 100 µM
- TGI (SN12C renal): > 100 µM
- TGI (UACC-62 melanoma): > 100 µM
- TGI (M14 melanoma): > 100 µM
- TGI (KM12 colon): > 100 µM
- TGI (ACHN renal): > 100 µM
- TGI (EKVX NSCLC): > 100 µM
- TGI (HS 578T breast): > 100 µM
- TGI (SF-268 CNS): > 100 µM
- TGI (CAKI-1 renal): > 100 µM
- TGI (UACC-257 melanoma): > 100 µM
- TGI (MDA-N): > 100 µM
- TGI (CCRF-CEM leukemia): > 100 µM
- TGI (HCT-116 colon): > 100 µM
- TGI (LOX IMVI melanoma): > 100 µM

Compound: O=C1CCCCC/C1=C\c1cccc([N+](=O)[O-])c1
- TGI (SR leukemia): 39.9 µM
- TGI (786-0 renal): > 100 µM
- TGI (UO-31 renal): 80.1 µM
- TGI (SK-MEL-5 melanoma): 40.4 µM
- TGI (K-562 leukemia): > 100 µM
- TGI (DU-145 prostate): > 100 µM
- TGI (RPMI-8226 leukemia): 78.1 µM
- TGI (SNB-75 CNS): > 100 µM
- TGI (U251 CNS): > 100 µM
- TGI (NCI-H460 lung): 67.9 µM
- TGI (HOP-62 NSCLC): > 100 µM
- TGI (BT-549 breast): 72.8 µM
- TGI (MOLT-4 leukemia): 83.5 µM
- TGI (A549 NSCLC): > 100 µM
- TGI (SF-539 CNS): 48.7 µM
- TGI (MDA-MB-435): > 100 µM
- TGI (SF-295 CNS): 50.4 µM
- TGI (SW-620 colon): > 100 µM
- TGI (HCC-2998 colon): 44 µM
- TGI (SNB-19 CNS): > 100 µM
- TGI (SK-MEL-28 melanoma): > 100 µM
- TGI (OVCAR-3 ovarian): > 100 µM
- TGI (SK-OV-3 ovarian): > 100 µM
- TGI (TK-10 renal): 97.2 µM
- TGI (PC-3 prostate): > 100 µM
- TGI (OVCAR-8 ovarian): > 100 µM
- TGI (IGROV1 ovarian): 50.4 µM
- TGI (HL-60(TB) leukemia): 57 µM
- TGI (COLO 205 colon): > 100 µM
- TGI (RXF 393 renal): 93.1 µM
- TGI (NCI/ADR-RES ovarian): 95.5 µM
- TGI (MDA-MB-231 breast): 56.4 µM
- TGI (MALME-3M melanoma): 72.4 µM
- TGI (A498 renal): > 100 µM
- TGI (SN12C renal): > 100 µM
- TGI (T-47D breast): > 100 µM
- TGI (SK-MEL-2 melanoma): > 100 µM
- TGI (UACC-62 melanoma): 67.6 µM
- TGI (MCF7 breast): > 100 µM
- TGI (M14 melanoma): > 100 µM
- TGI (KM12 colon): 56.1 µM
- TGI (ACHN renal): > 100 µM
- TGI (EKVX NSCLC): > 100 µM
- TGI (SF-268 CNS): 40.6 µM
- TGI (CAKI-1 renal): > 100 µM
- TGI (UACC-257 melanoma): 54.8 µM
- TGI (OVCAR-5 ovarian): > 100 µM
- TGI (HT29 colon): > 100 µM
- TGI (MDA-N): > 100 µM
- TGI (CCRF-CEM leukemia): 44.2 µM
- TGI (HCT-116 colon): 53 µM

Compound: CCCCCCCCCC(O)CC(=O)c1c(O)cccc1O (stereo not drawn)
- TGI (NCI-H522 lung): 37.9 µM
- TGI (786-0 renal): 50.4 µM
- TGI (UO-31 renal): 38.6 µM
- TGI (SK-MEL-5 melanoma): 38 µM
- TGI (K-562 leukemia): 49.5 µM
- TGI (DU-145 prostate): > 100 µM
- TGI (RPMI-8226 leukemia): 45.2 µM
- TGI (SNB-75 CNS): 34.9 µM
- TGI (U251 CNS): > 100 µM
- TGI (HOP-62 NSCLC): 33.1 µM
- TGI (MOLT-4 leukemia): 41.6 µM
- TGI (A549 NSCLC): 55.1 µM
- TGI (SF-539 CNS): 40.7 µM
- TGI (MDA-MB-435): 68.1 µM
- TGI (SF-295 CNS): 39.1 µM
- TGI (SW-620 colon): > 100 µM
- TGI (HCC-2998 colon): 26.8 µM
- TGI (SNB-19 CNS): 73 µM
- TGI (SK-MEL-28 melanoma): > 100 µM
- TGI (OVCAR-3 ovarian): 41.9 µM
- TGI (SK-OV-3 ovarian): 41.3 µM
- TGI (TK-10 renal): 45.7 µM
- TGI (PC-3 prostate): 36.4 µM
- TGI (OVCAR-4 ovarian): 35.2 µM
- TGI (OVCAR-8 ovarian): 38.6 µM
- TGI (NCI-H23 lung): 43.7 µM
- TGI (IGROV1 ovarian): 36.8 µM
- TGI (HL-60(TB) leukemia): 57.3 µM
- TGI (COLO 205 colon): 91.7 µM
- TGI (RXF 393 renal): 34.8 µM
- TGI (NCI/ADR-RES ovarian): 38.5 µM
- TGI (HCT-15 colon): 39.4 µM
- TGI (MDA-MB-231 breast): 46.5 µM
- TGI (MALME-3M melanoma): 32.3 µM
- TGI (A498 renal): 88.5 µM
- TGI (SN12C renal): 63.9 µM
- TGI (T-47D breast): 71.5 µM
- TGI (SK-MEL-2 melanoma): 35.7 µM
- TGI (MCF7 breast): 50.3 µM
- TGI (M14 melanoma): 44.2 µM
- TGI (KM12 colon): 40.8 µM
- TGI (ACHN renal): 53.7 µM
- TGI (EKVX NSCLC): 45.5 µM
- TGI (HS 578T breast): 40.8 µM
- TGI (SF-268 CNS): 35.9 µM
- TGI (CAKI-1 renal): 44 µM
- TGI (UACC-257 melanoma): 38.7 µM
- TGI (OVCAR-5 ovarian): 35.7 µM
- TGI (HT29 colon): 43 µM
- TGI (MDA-N): 51.6 µM
- TGI (CCRF-CEM leukemia): > 100 µM
- TGI (NCI-H226 lung): 34.9 µM
- TGI (HOP-92 NSCLC): 64.8 µM
- TGI (HCT-116 colon): 56.7 µM
- TGI (LOX IMVI melanoma): 46 µM

Compound: O=C(O)CN1CCCC(Cc2c[nH]c3ccccc23)C1 (stereo not drawn)
- TGI (UO-31 renal): > 100 µM
- TGI (SK-MEL-5 melanoma): > 100 µM
- TGI (K-562 leukemia): > 100 µM
- TGI (DU-145 prostate): > 100 µM
- TGI (SNB-75 CNS): > 100 µM
- TGI (HOP-62 NSCLC): > 100 µM
- TGI (BT-549 breast): > 100 µM
- TGI (A549 NSCLC): > 100 µM
- TGI (SF-539 CNS): > 100 µM
- TGI (MDA-MB-435): > 100 µM
- TGI (SF-295 CNS): > 100 µM
- TGI (SW-620 colon): > 100 µM
- TGI (HCC-2998 colon): > 100 µM
- TGI (SK-MEL-28 melanoma): > 100 µM
- TGI (OVCAR-3 ovarian): > 100 µM
- TGI (SK-OV-3 ovarian): > 100 µM
- TGI (TK-10 renal): > 100 µM
- TGI (PC-3 prostate): > 100 µM
- TGI (OVCAR-4 ovarian): > 100 µM
- TGI (OVCAR-8 ovarian): > 100 µM
- TGI (NCI-H23 lung): > 100 µM
- TGI (IGROV1 ovarian): > 100 µM
- TGI (COLO 205 colon): > 100 µM
- TGI (RXF 393 renal): > 100 µM
- TGI (NCI/ADR-RES ovarian): > 100 µM
- TGI (HCT-15 colon): > 100 µM
- TGI (MDA-MB-231 breast): > 100 µM
- TGI (MALME-3M melanoma): > 100 µM
- TGI (SK-MEL-2 melanoma): > 100 µM
- TGI (UACC-62 melanoma): > 100 µM
- TGI (M14 melanoma): > 100 µM
- TGI (KM12 colon): > 100 µM
- TGI (ACHN renal): > 100 µM
- TGI (EKVX NSCLC): > 100 µM
- TGI (HS 578T breast): > 100 µM
- TGI (SF-268 CNS): > 100 µM
- TGI (CAKI-1 renal): > 100 µM
- TGI (UACC-257 melanoma): > 100 µM
- TGI (OVCAR-5 ovarian): > 100 µM
- TGI (MDA-N): > 100 µM
- TGI (NCI-H226 lung): > 100 µM
- TGI (HOP-92 NSCLC): > 100 µM
- TGI (LOX IMVI melanoma): > 100 µM
